Source: patent publication US9957173B2, “Treatment of water” (BWA WATER ADDITIVES UK LIMITED, priority 2015, dated 2018)

Experiments:
[1] = test system: Enterobacter aerogenes; experiment: Log10 reduction in viable count of facultative anaerobes after treatment of inoculated high-TDS aqueous system; assay type: cell-based; details: for Log10 Reduction Facultative Anaerobes: TDS 30,000 mg l^−1, 8 = complete kill
Experimental: (§1) Aqueous systems inoculated with anaerobe and facultative anaerobe culture and having a total dissolved solids (TDS) concentration of 30,000 mg l^−1 were prepared and treated with treatment agents comprising: (a) a phosphonium compound and (b) a nitro compound. The phosphonium compound (a) used was tri n-butyl n-tetradecyl phosphonium chloride (TTPC). The nitro compound (b) used was 2-hydroxymethyl-2-nitro-1,3-propanediol (THNM).
(§2) A suspension of Desulfovibrio vulgaris plus Enterobacter aerogenes bacteria containing from 1×10^5 to 1×10^6 cells/mL was prepared in sterile pH 8 phosphate buffer containing sodium chloride to give the desired total dissolved solids (TDS) concentration. Aliquots of this suspension were dosed with the indicated concentrations of the compounds (a) and (b) with the concentrations being measured as ppm. The mixtures were allowed to stand at room temperature. At the designated contact times, each mixture was sampled to determine the total number of viable cells of both Desulfovibrio vulgaris and Enterobacter aerogenes by serial 10-fold dilution into API RP 38 media vials and anaerobic acid producing media vials, respectively. The vials were incubated at 37° C. for 72 hours. Results were recorded as log10 reduction in the viable count versus the control.
(§3) The efficacy of the treatment agents was evaluated by measuring the Log10 Reduction of the anaerobic bacterium Desulfovibrio vulgaris and the facultative anaerobic bacterium Enterobacter aerogenes after contact times of 1 hour, 4 hours and 24 hours as detailed in Table 1. For TTPC the stated ppm value relates to the amount of TTPC added (active). For the THNM the stated ppm relates to the amount of THNM added (active).

[2] = test system: Desulfovibrio vulgaris; experiment: Log10 reduction in viable count of anaerobes after treatment of inoculated high-TDS aqueous system; assay type: cell-based; details: for Log10 Reduction Anaerobes: TDS 30,000 mg l^−1, 5 = complete kill
Experimental: as §1, §2, §3

[3] = Example 3: THNM 75 ppm active alone, contact time 1 hour
[4] = Example 4: THNM 150 ppm active alone, contact time 1 hour
[5] = Example 11: THNM 75 ppm active alone, contact time 4 hours
[6] = Example 12: THNM 150 ppm active alone, contact time 4 hours
[7] = Example 19: THNM 75 ppm active alone, contact time 24 hours
[8] = Example 20: THNM 150 ppm active alone, contact time 24 hours
[9] = THNM alone, even at concentrations of 150 ppm
[10] = Example 1: TTPC 3.125 ppm active alone, contact time 1 hour
[11] = Example 2: TTPC 6.25 ppm active alone, contact time 1 hour
[12] = Example 9: TTPC 3.125 ppm active alone, contact time 4 hours
[13] = Example 10: TTPC 6.25 ppm active alone, contact time 4 hours
[14] = Example 17: TTPC 3.125 ppm active alone, contact time 24 hours
[15] = Example 18: TTPC 6.25 ppm active alone, contact time 24 hours

O=[N+]([O-])C(CO)(CO)CO [THNM, 2-hydroxymethyl-2-nitro-1,3-propanediol]
no affect: effect on facultative anaerobes [1, 9] | effect on anaerobes [2, 9]
0: Log10 Reduction Facultative Anaerobes [1, 3] | Log10 Reduction Facultative Anaerobes [1, 4] | Log10 Reduction Facultative Anaerobes [1, 5] | Log10 Reduction Facultative Anaerobes [1, 6] | Log10 Reduction Facultative Anaerobes [1, 7] | Log10 Reduction Facultative Anaerobes [1, 8] | Log10 Reduction Anaerobes [2, 3] | Log10 Reduction Anaerobes [2, 4] | Log10 Reduction Anaerobes [2, 5] | Log10 Reduction Anaerobes [2, 6] | Log10 Reduction Anaerobes [2, 7] | Log10 Reduction Anaerobes [2, 8]

CCCCCCCCCCCCCC[P+](CCCC)(CCCC)CCCC.[Cl-] [TTPC, tri n-butyl n-tetradecyl phosphonium chloride]
4: Log10 Reduction Facultative Anaerobes [1, 13]
0: Log10 Reduction Anaerobes [2, 10]
1: Log10 Reduction Facultative Anaerobes [1, 10] | Log10 Reduction Anaerobes [2, 11]
5: Log10 Reduction Facultative Anaerobes [1, 15] | Log10 Reduction Anaerobes [2, 12] | Log10 Reduction Anaerobes [2, 13] | Log10 Reduction Anaerobes [2, 14] | Log10 Reduction Anaerobes [2, 15]
3: Log10 Reduction Facultative Anaerobes [1, 11] | Log10 Reduction Facultative Anaerobes [1, 14]
2: Log10 Reduction Facultative Anaerobes [1, 12]
